Series [1] has as its system Leishmania orientalis. The series is described as follows: Antileishmanial activity against Leishmania orientalis MHOM/TH/2010/PCM2 promastigote incubated for 72 hrs by resazurin dye based colorimetric assay. The class given is functional, organism-based. Background: Alamar Blue is a resazurin reagent that responds to reducing activity.
The subject of series [2] is Leishmania martiniquensis. The experiment in a line: Potency index, ratio of IC50 for miltefosine to IC50 for test compound for antileishmanial activity against Leishmania martiniquensis MHOM/MQ/92/MAR promastigote incubated for 72 hrs by resazurin dye based colorimetric assay. It counts as functional.
The subject of series [3] is Leishmania martiniquensis. The experiment in a line: Antileishmanial activity against Leishmania martiniquensis MHOM/MQ/92/MAR promastigote incubated for 72 hrs by resazurin dye based colorimetric assay. The class given is functional, organism-based.
For series [4], the system named is Leishmania orientalis. The series is described as follows: Antileishmanial activity against Leishmania orientalis MHOM/TH/2010/PCM2 promastigote at 0.25 uM incubated for 72 hrs by resazurin dye based colorimetric assay relative to control. The class given is functional.
Series [5] concerns Leishmania orientalis. The series is described as follows: Antileishmanial activity against Leishmania orientalis MHOM/TH/2010/PCM2 promastigote at 0.1 uM incubated for 72 hrs by resazurin dye based colorimetric assay relative to control. It counts as functional.
Series [6] relates to J774.A1. The series is described as follows: Cytotoxicity against mouse J774A.1 cells assessed as reduction in cell viability at 0.25 uM incubated for 72 hrs by colorimetric assay relative to control. The conditions noted are these: j774.a1, 72 h. The class given is cell-based.
The subject of series [7] is Leishmania martiniquensis. The experiment in a line: Antileishmanial activity against Leishmania martiniquensis MHOM/MQ/92/MAR promastigote at 0.1 uM incubated for 72 hrs by resazurin dye based colorimetric assay relative to control. The class given is functional.
The subject of series [8] is Leishmania orientalis. The experiment in a line: Antileishmanial activity against Leishmania orientalis MHOM/TH/2010/PCM2 axenic amastigotes at 0.25 uM incubated for 72 hrs by resazurin dye based colorimetric assay relative to control. The class given is functional.
The subject of series [9] is J774.A1. The series is described as follows: Cytotoxicity against mouse J774A.1 cells assessed as reduction in cell viability at 4.0 uM incubated for 72 hrs by colorimetric assay relative to control. The class given is cell-based. The conditions noted are these: j774.a1, 72 h.
Series [10] deals with Leishmania martiniquensis. The experiment in a line: Antileishmanial activity against Leishmania martiniquensis MHOM/MQ/92/MAR promastigote at 0.25 uM incubated for 72 hrs by resazurin dye based colorimetric assay relative to control. It counts as functional.
Series [11] deals with Leishmania orientalis. The experiment in a line: Antileishmanial activity against Leishmania orientalis MHOM/TH/2010/PCM2 axenic amastigotes incubated for 72 hrs by resazurin dye based colorimetric assay. It counts as functional, organism-based.

For orientation: IC50 means the midpoint of a concentration-inhibition curve. A low value points to greater potency in that assay. `CCn1c(=O)/c(=C/C=C2\Sc3ccccc3N2C)s/c1=C\c1sc2ccc(F)cc2[n+]1C.[Cl-]`: the 50% inhibitory concentration (IC50) in series [1] came out at 104 nM; in series [3], 85 nM; in [11], 80 nM. Besides, the “Ratio IC50” value in series [2] was 200. The “inhibition (INH)” value in series [4] is reported as 91.7%; in [5] it was 66.2%; in series [7], 82.8%; in [8], 86.5%; in series [10], 89.3%. The results for the Activity result in [6] and in [9] were “Non-Toxic” and 26.9%, respectively.
